Source: PMC6234012 (Nature structural & molecular biology, 2018)
No end group written: not given here.

Key:
Ku = conditions: fluorescence polarization with labelled peptides; cited from earlier work
Ku80 = conditions: yeast two-hybrid experiments or EMSA; cited from earlier work
[1] = system: DSBs sites in XLF-defective BuS cells; experiment: Live cell recruitment of CFP-XLF to laser sites, BuS cells; assay type: cell-based, human; conditions: for Recruitment to laser-irradiated sites, full-length XLF: CFP-XLF in BuS cells, n=20 cells, WT vs L297W p=0.0093, WT vs L297E p<0.0001
[2] = target: KuFL (full length Ku70/Ku80) (Homo sapiens, UniProt P12956+P13010); experiment: ITC, ligand into KuFL; assay type: binding; conditions: 25°C, pH 8.0, KuFL in cell, line 9 deduced from the first injection point
Chain of KuFL (full length Ku70/Ku80) (P13010 whole entry): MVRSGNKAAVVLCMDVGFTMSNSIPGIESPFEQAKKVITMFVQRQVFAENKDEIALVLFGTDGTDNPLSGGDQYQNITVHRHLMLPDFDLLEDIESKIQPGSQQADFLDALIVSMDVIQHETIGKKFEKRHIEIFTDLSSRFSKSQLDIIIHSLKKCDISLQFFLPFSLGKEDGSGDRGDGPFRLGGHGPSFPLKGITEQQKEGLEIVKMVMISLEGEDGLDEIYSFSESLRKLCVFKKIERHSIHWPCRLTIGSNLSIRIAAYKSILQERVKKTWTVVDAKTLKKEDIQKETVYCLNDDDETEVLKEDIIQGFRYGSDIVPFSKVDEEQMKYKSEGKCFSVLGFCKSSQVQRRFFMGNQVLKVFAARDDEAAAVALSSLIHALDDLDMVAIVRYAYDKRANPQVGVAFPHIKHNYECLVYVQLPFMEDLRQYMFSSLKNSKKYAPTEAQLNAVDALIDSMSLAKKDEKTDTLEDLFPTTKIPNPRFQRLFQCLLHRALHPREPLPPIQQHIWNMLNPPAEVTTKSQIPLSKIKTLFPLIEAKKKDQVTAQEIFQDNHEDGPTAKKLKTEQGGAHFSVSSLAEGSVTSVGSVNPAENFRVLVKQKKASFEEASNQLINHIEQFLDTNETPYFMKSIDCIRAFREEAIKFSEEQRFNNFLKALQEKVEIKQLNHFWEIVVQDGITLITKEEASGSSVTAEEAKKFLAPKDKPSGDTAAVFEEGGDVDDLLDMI
Chain of KuFL (full length Ku70/Ku80) (P12956 whole entry): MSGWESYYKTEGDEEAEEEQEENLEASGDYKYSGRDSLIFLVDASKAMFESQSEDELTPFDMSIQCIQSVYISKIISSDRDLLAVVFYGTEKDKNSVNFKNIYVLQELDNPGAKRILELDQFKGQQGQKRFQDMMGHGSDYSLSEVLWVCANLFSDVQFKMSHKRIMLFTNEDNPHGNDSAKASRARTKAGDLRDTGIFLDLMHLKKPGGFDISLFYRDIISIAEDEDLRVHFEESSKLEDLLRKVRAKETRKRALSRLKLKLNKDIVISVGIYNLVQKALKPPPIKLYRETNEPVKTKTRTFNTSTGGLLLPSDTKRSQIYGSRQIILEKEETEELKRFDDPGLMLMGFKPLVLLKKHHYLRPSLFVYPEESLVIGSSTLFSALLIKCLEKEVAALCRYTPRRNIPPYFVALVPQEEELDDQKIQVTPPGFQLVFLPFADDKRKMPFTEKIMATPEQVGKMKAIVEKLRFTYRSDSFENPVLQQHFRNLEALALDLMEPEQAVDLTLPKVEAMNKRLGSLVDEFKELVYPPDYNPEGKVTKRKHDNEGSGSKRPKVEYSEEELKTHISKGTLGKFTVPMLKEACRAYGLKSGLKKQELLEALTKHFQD

[3] = target: Ku70cc;Ku80cc;pAPLF (A-KBM peptide) (human?;human?;human?, UniProt P12956;P13010;Q8IW19 1-544;1-551;174-191, ||); experiment: X-ray crystallography 3.0 A
Chain of Ku70cc;Ku80cc;pAPLF (A-KBM peptide) (P12956 1-544, chain 1 of 2): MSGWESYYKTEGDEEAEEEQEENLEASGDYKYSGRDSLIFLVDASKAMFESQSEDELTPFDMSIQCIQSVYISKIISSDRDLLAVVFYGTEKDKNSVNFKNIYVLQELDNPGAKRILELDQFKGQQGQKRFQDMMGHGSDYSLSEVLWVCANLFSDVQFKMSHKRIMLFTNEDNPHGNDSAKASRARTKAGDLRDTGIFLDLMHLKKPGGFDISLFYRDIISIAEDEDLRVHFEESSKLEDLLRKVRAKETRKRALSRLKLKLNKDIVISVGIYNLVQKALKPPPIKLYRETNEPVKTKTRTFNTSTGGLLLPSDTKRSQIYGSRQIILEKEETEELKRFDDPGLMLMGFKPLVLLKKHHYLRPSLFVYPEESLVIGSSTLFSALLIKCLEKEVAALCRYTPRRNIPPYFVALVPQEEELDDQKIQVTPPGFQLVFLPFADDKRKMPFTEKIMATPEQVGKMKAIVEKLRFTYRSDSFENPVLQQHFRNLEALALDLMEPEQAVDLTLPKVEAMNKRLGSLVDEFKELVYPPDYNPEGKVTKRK
Chain of Ku70cc;Ku80cc;pAPLF (A-KBM peptide) (P13010 1-551, chain 2 of 2): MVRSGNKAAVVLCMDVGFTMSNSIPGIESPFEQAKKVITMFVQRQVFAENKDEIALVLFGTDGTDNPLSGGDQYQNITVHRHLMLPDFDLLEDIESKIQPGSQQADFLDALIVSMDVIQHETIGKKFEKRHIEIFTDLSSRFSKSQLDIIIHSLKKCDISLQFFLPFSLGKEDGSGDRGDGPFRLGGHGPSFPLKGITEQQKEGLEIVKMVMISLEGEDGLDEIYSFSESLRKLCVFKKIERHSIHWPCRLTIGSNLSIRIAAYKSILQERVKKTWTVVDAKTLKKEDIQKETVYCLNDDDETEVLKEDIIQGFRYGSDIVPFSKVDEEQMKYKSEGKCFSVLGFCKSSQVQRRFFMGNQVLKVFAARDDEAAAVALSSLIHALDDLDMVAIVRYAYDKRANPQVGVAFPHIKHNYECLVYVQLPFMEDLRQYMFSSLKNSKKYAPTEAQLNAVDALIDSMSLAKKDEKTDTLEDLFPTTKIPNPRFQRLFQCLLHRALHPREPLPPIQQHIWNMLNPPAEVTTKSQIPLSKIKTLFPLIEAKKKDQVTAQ

[4] = target: Ku70cc;Ku80cc;pXLF (long X-KBM peptide) (human?;human?;human?, UniProt P12956;P13010;Q9H9Q4 1-544;1-551;281-299, ||); experiment: X-ray crystallography 2.8 A
Chain of Ku70cc;Ku80cc;pXLF (long X-KBM peptide) (P12956 1-544, chain 1 of 2): as the sequence (P12956 1-544, chain 1 of 2) above
Chain of Ku70cc;Ku80cc;pXLF (long X-KBM peptide) (P13010 1-551, chain 2 of 2): as the sequence (P13010 1-551, chain 2 of 2) above

[5] = target: Ku70cc;Ku80cc;pXLFs (short X-KBM peptide) (human?;human?;human?, UniProt P12956;P13010;Q9H9Q4 1-544;1-551;287-299, ||); experiment: X-ray crystallography 2.9 A
Chain of Ku70cc;Ku80cc;pXLFs (short X-KBM peptide) (P12956 1-544, chain 1 of 2): as the sequence (P12956 1-544, chain 1 of 2) above
Chain of Ku70cc;Ku80cc;pXLFs (short X-KBM peptide) (P13010 1-551, chain 2 of 2): as the sequence (P13010 1-551, chain 2 of 2) above

[6] = target: Ku70 full length;Ku80 full length;XLF full length (human?;human?;human?, UniProt P12956;P13010;Q9H9Q4 1-609;1-732;1-299, ||); experiment: EMSA
Chain of Ku70 full length;Ku80 full length;XLF full length (P12956 whole entry, chain 1 of 3): as the sequence (P12956 whole entry) above
Chain of Ku70 full length;Ku80 full length;XLF full length (P13010 whole entry, chain 2 of 3): as the sequence (P13010 whole entry) above
Chain of Ku70 full length;Ku80 full length;XLF full length (Q9H9Q4 whole entry, chain 3 of 3): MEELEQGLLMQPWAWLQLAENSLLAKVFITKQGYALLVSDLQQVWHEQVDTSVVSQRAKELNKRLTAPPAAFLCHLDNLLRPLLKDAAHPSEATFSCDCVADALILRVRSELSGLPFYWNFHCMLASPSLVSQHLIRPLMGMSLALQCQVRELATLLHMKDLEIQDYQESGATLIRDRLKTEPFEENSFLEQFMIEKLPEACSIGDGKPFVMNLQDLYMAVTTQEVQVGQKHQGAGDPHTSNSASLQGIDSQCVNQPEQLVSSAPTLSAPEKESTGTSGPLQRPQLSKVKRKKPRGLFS

[7] = target: T1, Ku70 full length;Ku80 full length (human?;human?, UniProt P12956;P13010 1-609;1-732, |); experiment: switchSENSE
T1 sequence (P12956 whole entry, chain 1 of 2): as the sequence (P12956 whole entry) above
T1 sequence (P13010 whole entry, chain 2 of 2): as the sequence (P13010 whole entry) above

[8] = target: T1, Ku70 full length;Ku80 full length; experiment: ITC

CC(C)C[C@H](NC(=O)CNC(=O)[C@H](CCCNC(=N)N)NC(=O)[C@@H]1CCCN1C(=O)[C@H](CCCCN)NC(=O)[C@H](CCCCN)NC(=O)[C@H](CCCNC(=N)N)NC(=O)[C@H](CCCCN)NC(=O)[C@@H](NC(=O)[C@H](CCCCN)NC(=O)[C@H](CO)NC(=O)[C@H](CC(C)C)NC(=O)[C@H](CCC(N)=O)NC(=O)[C@@H]1CCCN1C(=O)[C@H](CCCNC(=N)N)NC(=O)[C@H](CCC(N)=O)NC(=O)[C@@H](N)CC(C)C)C(C)C)C(=O)N[C@@H](Cc1ccccc1)C(=O)N[C@@H](CO)C(=O)O [pXLF]
Interaction detected (Ku): not detected

APLF: APTX and PNKP-like factor
Effect of Ku80 mutations at L68, Y74, I112 on interaction with APLF (Ku80): greatly reduce or disrupt the interactions

F298G: XLF mutant in the extreme C-terminus
Recruitment to laser-irradiated sites, full-length XLF [1]: important reduction of the recruitment

G296W: XLF mutant in the extreme C-terminus
Recruitment to laser-irradiated sites, full-length XLF [1]: important reduction of the recruitment

L115D XLF: XLF mutant unable to interact with XRCC4
Recruitment to laser-irradiated sites, full-length XLF [1]: efficient recruitment
Effect of APLF knock-down on XLF recruitment ([1]; CFP-XLF, APLF knock-down): insensitive to APLF knock-down

LQRPQLSKVKRKKPRGWFS [pXLF(LW)]
ΔH [2]: -12.1 ± 2.0 kcal/M

S299E: XLF mutant in the extreme C-terminus
Recruitment to laser-irradiated sites, full-length XLF [1]: important reduction of the recruitment

XLF L115D/L297E: XLF L115D/L297E double mutant
Recruitment to laser-irradiated sites, full-length XLF [1]: impaired

B1: hDNA (CN1/CN2 hairpin DNA) (structured_DNA)
DNA 1: CGCGCCCAGCTTTCCCAGCTAATAAACTAAAAAC
DNA 2: GTTTTTAGTTTATTGGGCGCG
binding result [3]: binds
binding result [4]: binds
binding result [5]: binds

B2: 50bp DNA (MM 50bp up/do) (dsDNA)
DNA 1: TAAATGCCAATGCTGCTGATACGTACTCGGACTGATTCGGAACTGTAACG
DNA 2: CGTTACAGTTCCGAATCAGTCCGAGTACGTATCAGCAGCATTGGCATTTA
binding result [6]: binds

B3: 48bp DNA nanolever (NLB48) (dsDNA)
DNA 1: TAGTCGTAAGCTGATATGGCTGATTAGTCGGAAGCATCGAACGCTGAT
DNA 2: ATCAGCGTTCGATGCTTCCGACTAATCAGCCATATCAGCTTACGACTA
binding result [7]: binds

B4: DNA 18bp (CN3/CN4) (dsDNA)
DNA 1: GTTATCCGAGCGTGAGAC
DNA 2: GTCTCACGCTCGGATAAC
Kd [8]: 4.1 ± 0.7 nM
